Values belong to the compound of their own block, whether it stands above or below them.
Tests used:
RBL-2H3 cells = test: Inhibition of histamine release by HRF (RIA); assay type: cell-based; details: for effect on histamine release by HRF: peptide 20 μg/ml, HRF 20 μg/ml
Protocol: The full-length rat HRF sequence (Chitpatima, et al., 1988) amplified by PCR was cloned in pRSET-A vector and overexpressed in E. coli. The expressed recombinant protein was purified by His-bound Ni column (Novagen) and used for the stimulation of RBL-2H3 cells. RBL-2H3 cells were grown in 24-well plate at 1×10^6 cells, sensitized with rat IgE antibodies (0.2 μg/ml, Serotec) for 45˜60 minutes and then, treated with 20 μg/ml of the recombinant HRF protein (positive control). The cells as prepared above were dose-dependently treated with heptamer peptides p1 and p2. Also, they were treated with the recombinant HRF protein and peptides p1, p2, p4 and m1 to m7 at the same concentration as that of HRF, i.e. 20 μg/ml, respectively,
The obtained sample was prepared to acylated histamine using RIA-analysis kit (Immunotech, France) and then, competitively bound to ^125I-acylated histamine and monoclonal antibodies. This sample was reanalyzed in γ-counter.

HRF = target: T1, HRF (Rattus norvegicus, UniProt P63029); test: Competition binding assay of synthetic peptides against phage clones; details: for binding site on HRF, competitive binding analysis on ph2: competition with ph2; for competition of synthetic peptide with phage clones for HRF: peptide 0.001-1000 nM, phage 1/25-fold diluted
T1 construct: His tag (pRSET-A); made in house; host or cells: E. coli
T1 sequence (P63029 1-172): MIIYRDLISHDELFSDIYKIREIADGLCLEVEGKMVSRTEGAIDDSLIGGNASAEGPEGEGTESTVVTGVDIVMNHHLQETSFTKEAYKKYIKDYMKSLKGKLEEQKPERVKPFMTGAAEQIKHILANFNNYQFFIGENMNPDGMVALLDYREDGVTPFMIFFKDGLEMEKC
Protocol: Also, as a negative control, random peptide (ran, amino acid sequence: LMEGCRA) was synthesized. To the wells coated with HRF was added each 30 μl of the peptide solution serially diluted in 6% BSA/PBS from 1000 nM (1000, 100, 10, 1, 0.1, 0.01, 0.001 nM) and the solution was allowed to stand at room temperature for 30 minutes. The 1/25-fold diluted phage solution was added thereto and the whole solution was further allowed to stand for 2 hours. The solution was washed five times with PBST and then, each 100 μl of HRP-conjugated anti-M13 antibodies were added thereto and then, the resulting mixture was allowed to stand for 1 hour. The mixture was washed 6 times with PBST and once with PBS, and thereto was added each 100 μl of peroxydase substrate solution to examine the competition.
b) In order to test whether or not p1, p2 and p4 bind to the identical site on HRF, the wells were coated with HRF according to the substantially same procedure as in the above a).

malaria protein HRF = malaria protein HRF (Plasmodium falciparum, UniProt Q8I3Z5); details: cited from earlier work
PC12 cells = test: Inhibition of HRF-stimulated dopamine release by HRF-binding peptide; assay type: cell-based; details: 60 μg/ml of p2, 15 μg/ml of HRF
Protocol: In order to confirm whether the peptides blocking histamine release by HRF also block neurotransmitters release in nerve cells, the peptide of SEQ ID No. 14 (p2) was tested for its effects on dopamine release stimulated by HRF according to the substantially same procedure as in Example 16.

malaria protein HRF, sequence (Q8I3Z5 whole entry): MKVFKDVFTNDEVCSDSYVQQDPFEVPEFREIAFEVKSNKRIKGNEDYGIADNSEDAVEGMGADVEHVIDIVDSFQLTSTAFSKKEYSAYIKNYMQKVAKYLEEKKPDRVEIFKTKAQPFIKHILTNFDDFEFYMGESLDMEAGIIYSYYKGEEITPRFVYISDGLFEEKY

Compound: WYVAPSM (OTHER INFORMATION: IgE-dependent histamine-releasi ng factor binding peptide) [m4, p2 variant, alanine substitution]
- effect on histamine release by HRF (RBL-2H3 cells): inhibited histamine release by HRF

- binding site on HRF, competitive binding analysis on ph2 (HRF): bound to the identical site on HRF
Compound: WEFPGWM (OTHER INFORMATION: IgE-dependent histamine-releasi ng factor binding peptide) [p4]
- competition of synthetic peptide with phage clones for HRF (HRF): bind to HRF competitively with phage clones ph2 and ph4
- effect on histamine release by HRF (RBL-2H3 cells): inhibited histamine release by HRF

Compound: C[C@@H]1CC[C@H]2[C@@H](C)C(=O)O[C@@H]3O[C@@]4(C)CC[C@@H]1[C@]32OO4 [Artemisinin]
- binding to malaria protein HRF (malaria protein HRF): binds to malaria protein HRF

Compound: WYVYKSM (OTHER INFORMATION: IgE-dependent histamine-releasi ng factor binding peptide) [m5, p2 variant, substituted with Lysine (K)]
- effect on histamine release by HRF (RBL-2H3 cells): inhibited histamine release by HRF

Compound: AYVYPSM (OTHER INFORMATION: IgE-dependent histamine-releasi ng factor binding peptide) [m1, p2 variant, alanine substitution]
- effect on histamine release by HRF (RBL-2H3 cells): inhibited histamine release by HRF

- binding site on HRF, competitive binding analysis on ph2 (HRF): bound to the identical site on HRF
Compound: WYVYPSM (OTHER INFORMATION: IgE-dependent histamine-releasi ng factor binding peptide) [p2]
- inhibition of HRF-increased dopamine release (PC12 cells): about 60%
- competition of synthetic peptide with phage clones for HRF (HRF): bind to HRF competitively with phage clones ph2 and ph4
- peptide concentration that inhibited histamine release (RBL-2H3 cells; dose-response, 20 μg/ml HRF): ≥ 0.01 µg/mL
- effect on histamine release by HRF (RBL-2H3 cells): inhibited histamine release by HRF

- binding site on HRF, competitive binding analysis on ph2 (HRF): bound to the identical site on HRF
Compound: LVTYPLP (OTHER INFORMATION: IgE-dependent histamine-releasi ng factor binding peptide) [p1]
- effect on histamine release by HRF (RBL-2H3 cells): inhibited histamine release by HRF

Compound: WYAYPSM (OTHER INFORMATION: IgE-dependent histamine-releasi ng factor binding peptide) [m3, p2 variant, alanine substitution]
- effect on histamine release by HRF (RBL-2H3 cells): inhibited histamine release by HRF

Compound: WYVYPSA [m7, p2 variant, alanine substitution]
- effect on histamine release by HRF (RBL-2H3 cells): inhibited histamine release by HRF

Compound: WAVYPSM (OTHER INFORMATION: IgE-dependent histamine-releasi ng factor binding peptide) [m2, p2 variant, alanine substitution]
- effect on histamine release by HRF (RBL-2H3 cells): inhibited histamine release by HRF

Compound: WYVYPAM (OTHER INFORMATION: IgE-dependent histamine rele asing factor binding peptide) [m6, p2 variant, alanine substitution]
- effect on histamine release by HRF (RBL-2H3 cells): conversely stimulated histamine release
